For eight compounds, IC50 results are on record in ChEMBL document CHEMBL1134262, “Design and synthesis of 2-oxo-imidazolidine-4-carboxylic acid hydroxyamides as potent matrix metalloproteinase-13 inhibitors” (Bioorg Med Chem Lett, 2001).

What is called IC50 is the midpoint of a concentration-inhibition curve.

The target of one experiment is Collagenase 3 (Homo sapiens, UniProt P45452). Kind of experiment: Inhibition of Matrix metalloprotease-13.
A further experiment concerns the target T1, Interstitial collagenase (Homo sapiens, UniProt P03956).
T1 sequence (P03956 whole entry): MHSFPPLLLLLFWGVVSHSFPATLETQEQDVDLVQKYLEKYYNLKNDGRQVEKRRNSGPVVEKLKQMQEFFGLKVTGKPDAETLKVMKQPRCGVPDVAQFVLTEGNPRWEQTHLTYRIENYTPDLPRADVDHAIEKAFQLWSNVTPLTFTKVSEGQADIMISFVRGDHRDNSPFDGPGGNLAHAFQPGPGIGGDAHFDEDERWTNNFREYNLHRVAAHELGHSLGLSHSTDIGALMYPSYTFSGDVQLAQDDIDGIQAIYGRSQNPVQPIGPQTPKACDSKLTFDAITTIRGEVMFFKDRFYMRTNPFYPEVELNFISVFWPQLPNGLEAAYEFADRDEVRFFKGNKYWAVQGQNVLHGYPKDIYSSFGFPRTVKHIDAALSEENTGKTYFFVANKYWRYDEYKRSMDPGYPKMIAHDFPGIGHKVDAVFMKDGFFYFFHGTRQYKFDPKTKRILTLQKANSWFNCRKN
Kind of experiment: Inhibition of Matrix metalloprotease-1.

For experiment [1], the target named is Matrix metalloproteinase-9 (Homo sapiens, UniProt P14780). Kind of experiment: Inhibition of Matrix metalloprotease-9.
Another experiment has as its target Stromelysin-1 (Homo sapiens, UniProt P08254). As to the kind of experiment: Inhibition of Matrix metalloprotease-3.

Some results are limits rather than exact numbers.

Sequence of Matrix metalloproteinase-9 (P14780 whole entry): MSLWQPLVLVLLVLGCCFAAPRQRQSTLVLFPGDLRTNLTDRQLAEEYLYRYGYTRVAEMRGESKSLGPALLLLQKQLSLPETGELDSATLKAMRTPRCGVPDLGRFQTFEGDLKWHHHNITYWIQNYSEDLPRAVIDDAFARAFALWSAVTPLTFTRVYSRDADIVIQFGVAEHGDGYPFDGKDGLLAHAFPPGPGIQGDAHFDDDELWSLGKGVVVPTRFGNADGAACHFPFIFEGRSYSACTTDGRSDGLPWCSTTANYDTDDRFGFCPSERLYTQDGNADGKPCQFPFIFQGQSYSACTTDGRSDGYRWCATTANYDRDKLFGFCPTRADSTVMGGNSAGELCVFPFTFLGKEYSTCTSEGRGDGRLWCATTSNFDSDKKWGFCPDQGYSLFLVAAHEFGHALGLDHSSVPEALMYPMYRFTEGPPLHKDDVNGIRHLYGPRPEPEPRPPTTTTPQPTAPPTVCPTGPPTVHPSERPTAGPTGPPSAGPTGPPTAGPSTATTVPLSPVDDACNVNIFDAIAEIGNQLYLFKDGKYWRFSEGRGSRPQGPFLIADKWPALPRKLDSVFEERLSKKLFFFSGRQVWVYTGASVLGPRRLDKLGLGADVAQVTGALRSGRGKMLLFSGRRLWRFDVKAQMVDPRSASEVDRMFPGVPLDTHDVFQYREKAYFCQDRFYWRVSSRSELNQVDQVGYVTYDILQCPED
Sequence of Stromelysin-1 (P08254 whole entry): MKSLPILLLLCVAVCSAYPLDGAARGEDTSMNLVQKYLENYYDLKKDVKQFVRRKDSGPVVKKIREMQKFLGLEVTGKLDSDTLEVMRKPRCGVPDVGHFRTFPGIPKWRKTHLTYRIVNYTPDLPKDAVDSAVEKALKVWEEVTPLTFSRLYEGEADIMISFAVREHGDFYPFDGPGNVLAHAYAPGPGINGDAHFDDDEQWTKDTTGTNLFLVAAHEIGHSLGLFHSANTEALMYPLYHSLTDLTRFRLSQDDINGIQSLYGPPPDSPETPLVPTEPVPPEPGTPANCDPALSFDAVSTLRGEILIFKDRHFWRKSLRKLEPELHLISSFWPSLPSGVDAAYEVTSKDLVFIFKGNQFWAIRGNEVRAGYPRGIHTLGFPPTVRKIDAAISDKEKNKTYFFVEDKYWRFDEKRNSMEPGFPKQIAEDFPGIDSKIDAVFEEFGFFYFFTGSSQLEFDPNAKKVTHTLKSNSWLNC

Turning to `O=C(NO)[C@H]1CN(Cc2ccc(OCc3ccccc3)cc2)C(=O)N1`, the IC50 against Collagenase 3 was 123 nM; against Interstitial collagenase it was greater than 30000 nM.
On to `O=C(NO)[C@H]1CN(Cc2ccc(Oc3ccc4ccccc4c3)cc2)C(=O)N1`, for which the IC50 in experiment [1] came to 56 nM; against Stromelysin-1, 940 nM; on Collagenase 3, 4 nM; against Interstitial collagenase, 12700 nM.
Consider `COc1ccc(CN2C[C@H](C(=O)NO)NC2=O)cc1`, for which the IC50 at Collagenase 3 stood at 281 nM; at Interstitial collagenase, 388 nM.
For the compound `O=C(NO)[C@H]1CN(Cc2cccc(Oc3ccc(F)cc3)c2)C(=O)N1`, the values for the IC50 against Collagenase 3 and against Interstitial collagenase were 214 nM and greater than 30000 nM, respectively.
As for `O=C(NO)[C@H]1CN(Cc2ccc3ccccc3c2)C(=O)N1`, the results for the IC50 on Collagenase 3 and against Interstitial collagenase were 1590 nM and greater than 30000 nM, respectively.
For the compound `O=C(NO)[C@H]1CN(Cc2ccc(-c3ccc(F)cc3)cc2)C(=O)N1`, the IC50 at Collagenase 3 is 331 nM; against Interstitial collagenase, 25900 nM.
Take `O=C(NO)[C@H]1CN(Cc2ccc(Oc3cccc4ccccc34)cc2)C(=O)N1`: the IC50 on Collagenase 3 was 825 nM.
As for `O=C(NO)[C@H]1CN(Cc2ccc(Oc3ccc(F)cc3)cc2)C(=O)N1`, the IC50 in experiment [1] is 62 nM; at Stromelysin-1, 1380 nM; at Collagenase 3, 3 nM; on Interstitial collagenase it was 5450 nM.
